Data published in patent US9493435B2, “IRE-1α inhibitors” (MannKing Corporation, priority 2009, dated 2016).

Columns and labels:
[1] = tested on: IRE-1α-mediated XBP-1 splicing in human myeloma MM.1s cells; experiment: Cellular XBP-1 splicing assay in myeloma cells (RT-PCR); type: cell-based; conditions: average EC50, endogenous XBP-1 splicing in myeloma cells, DTT stress
Experimental: After an additional 45 minutes (2 hours total) with compound and DTT, the cells are harvested with TRIZOL® (a mono-phasic solution of phenol and guanidine isothiocyanate), and total RNA is prepared as directed by the manufacturer (Invitrogen). Human XBP-1 is amplified by RT-PCR with the following primers, which flank the 26 base unconventional intron excised by IRE-1α:
RT-PCR of unstressed (U) cells then generates the upper band. When cells are stressed (S) with the endoplasmic reticulum (ER) stressing agent DTT, IRE-1α is activated due to accumulating unfolded protein and the resulting RT-PCR product is 26 base pairs shorter.
Compounds which pass specificity assays are assayed for cellular EC50 using endogenous XBP-1 splicing in myeloma cells. XBP-1 is regulated through the excision of a 26 nucleotide intron from the XBP-1 mRNA by the highly specific endoribonuclease activity of IRE-1α. […] This splicing event is used to measure IRE-1α activity on XBP-1 mRNA in cells and tissues.
Briefly, compounds are incubated in the presence or absence of an ER stress agent (e.g., DTT), and the ratio of XBP-1u (unspliced) to XBP-1s (spliced) is quantified by RT-PCR.

[2] = target: human IRE-1α (GST-IRE-1α) (Homo sapiens (Human), UniProt O75460); experiment: IRE-1α assay (cleavage of mini-XBP-1 mRNA stem-loop substrate); type: biochemical; conditions: average IC50 for inhibition of IRE-1α in vitro
Chain of human IRE-1α (GST-IRE-1α) (O75460 19-977): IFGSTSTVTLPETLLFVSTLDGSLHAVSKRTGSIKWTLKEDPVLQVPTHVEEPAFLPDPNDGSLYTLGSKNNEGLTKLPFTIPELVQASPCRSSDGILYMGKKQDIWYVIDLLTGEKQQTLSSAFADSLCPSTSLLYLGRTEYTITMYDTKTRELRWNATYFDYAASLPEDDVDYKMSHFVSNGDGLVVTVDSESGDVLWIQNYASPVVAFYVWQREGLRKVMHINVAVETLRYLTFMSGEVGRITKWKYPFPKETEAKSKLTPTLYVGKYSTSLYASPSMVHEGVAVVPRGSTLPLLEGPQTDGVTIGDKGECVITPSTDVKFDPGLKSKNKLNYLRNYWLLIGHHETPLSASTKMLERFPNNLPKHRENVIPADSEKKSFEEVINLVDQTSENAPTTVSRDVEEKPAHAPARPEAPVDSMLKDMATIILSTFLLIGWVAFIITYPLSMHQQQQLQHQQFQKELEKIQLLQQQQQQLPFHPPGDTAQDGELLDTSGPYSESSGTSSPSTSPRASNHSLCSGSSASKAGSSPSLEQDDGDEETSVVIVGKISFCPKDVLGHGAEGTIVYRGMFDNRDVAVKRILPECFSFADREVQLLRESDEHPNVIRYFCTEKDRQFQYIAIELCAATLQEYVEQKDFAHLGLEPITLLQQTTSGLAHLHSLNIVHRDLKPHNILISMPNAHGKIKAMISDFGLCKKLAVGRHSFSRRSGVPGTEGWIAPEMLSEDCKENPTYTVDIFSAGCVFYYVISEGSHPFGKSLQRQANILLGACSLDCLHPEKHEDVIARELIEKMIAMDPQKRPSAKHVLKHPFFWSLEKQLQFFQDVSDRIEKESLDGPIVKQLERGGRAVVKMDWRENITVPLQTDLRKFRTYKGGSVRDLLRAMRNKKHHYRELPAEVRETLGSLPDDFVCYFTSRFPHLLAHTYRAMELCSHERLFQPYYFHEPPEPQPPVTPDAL
Experimental: A fusion protein comprising glutathione S transferase (GST) and human IRE-1α (GST-IRE-1α) obtained from a 500 ml baculovirus-infected insect cell culture can be used to measure IRE-1α activity in vitro. Five μl of a reaction mixture comprising 1× reaction buffer (5× reaction buffer is 100 mM Hepes pH 7.5, 250 mM KOAc, 2.5 mM MgCl2), 3 mM DTT, and 0.4% polyethylene glycol water is added to each well of 384 well plates. Twenty-five nanoliters of a 1 mM test compound solution are added to test wells. […] Negative control wells contain only reaction mixture and test compound. After spinning the plates at 1200 rpm for 30 seconds, 3 μl of an IRE-1α human mini-XBP-1 mRNA stem-loop substrate [NT] ID NO:1), labeled with the fluorescent dye Cy5 at the [NT] end, are added to each well of a control plate. The plates are again spun at 1200 rpm for 30 seconds. […] The plates are covered with lids and incubated for one hour at 30° C. The plates are then transferred to an […] microplate reader. Data is analyzed using data analysis software, and the percent activity of IRE-1α is calculated.

Structure (SMILES)	EC50 ([1]; Homo sapiens, MM1.S) [µM]	IC50 [2] [µM]	EC50 [1] [µM]
O=Cc1c(O)ccc2cc(N3CCCC3)ccc12 [Compound 59]	> 10	> 1	–
O=Cc1c(O)ccc2ccc(N3CCC(N4CCOCC4)CC3)cc12 [Compound 90]	< 10	> 1	–
O=Cc1c(O)ccc2ccc(N3CCOCC3)cc12 [Compound 88]	< 10	> 1	–
O=Cc1c(O)ccc2cc(N3CCC(N4CCOCC4)C3)ccc12 (centres unmarked) [Compound 107]	> 10	> 1	–
O=Cc1c(O)ccc2ccc(N3CCC(N4CCCCC4)C3)cc12 (centres unmarked) [Compound 137]	> 10	> 1	–
CN(C)C(=O)C1CCN(c2ccc3ccc(O)c(C=O)c3c2)C1 (centres unmarked) [Compound 132]	> 10	> 1	–
O=Cc1c(O)ccc2cc(N3CCC(C(=O)N4CCCCC4)C3)ccc12 (centres unmarked) [Compound 129]	> 10	> 1	–
CN(C)C1CCN(c2ccc3ccc(O)c(C=O)c3c2)C1 (centres unmarked) [Compound 135]	> 10	> 1	–
CN1CCN(c2ccc3ccc(O)c(C=O)c3c2)CC1 [Compound 87]	> 10	> 1	–
CS(=O)(=O)NC1CCN(c2ccc3c(C=O)c(O)ccc3c2)CC1 [Compound 175]	–	> 1	–
CN1CCN(C(=O)COc2ccc3c(C=O)c(O)ccc3c2)CC1 [Compound 165]	–	> 1	> 10
CC(=O)NC1CCN(c2ccc3c(C=O)c(O)ccc3c2)CC1 [Compound 84]	> 10	< 1	–
CS(=O)(=O)N1CCN(c2ccc3c(C=O)c(O)ccc3c2)CC1 [Compound 92, 2-Hydroxy-6-(4-methanesulfonyl-piperazin-1-yl)-naphthalene-1-carbaldehyde]	> 10	> 1	–
CC(=O)NC1CCN(c2ccc3ccc(O)c(C=O)c3c2)C1 (centres unmarked) [Compound 156]	> 10	> 1	–
O=Cc1c(O)ccc2ccc(N3CCCC3)cc12 [Compound 104]	> 10	> 1	–
O=Cc1c(O)ccc2cc(N3CCN(Cc4cccnc4)CC3)ccc12 [Compound 100]	> 10	< 1	–
CN1CCN(C(=O)C2CCN(c3ccc4ccc(O)c(C=O)c4c3)C2)CC1 (centres unmarked) [Compound 150]	> 10	> 1	–
COCc1cn(-c2ccc3c(C=O)c(O)ccc3c2)nn1 [Compound 105]	< 10	< 1	–
CN(C1CCCN(c2ccc3c(C=O)c(O)ccc3c2)C1)S(C)(=O)=O (centres unmarked) [Compound 123]	–	< 1	–
O=Cc1c(O)ccc2cc(N3CCC(NCc4ccccn4)CC3)ccc12 [Compound 114]	> 10	< 1	–
CN(C)C(=O)c1ccc(-c2ccc3c(C=O)c(O)ccc3c2)c(Cl)c1 [Compound 28]	> 10	> 1	–
CC(=O)N(C)C1CCN(c2ccc3ccc(O)c(C=O)c3c2)C1 (centres unmarked) [Compound 157]	> 10	> 1	–
CN1CCN(C(=O)c2ccc(Cl)c(-c3ccc4c(C=O)c(O)ccc4c3)c2)CC1 [Compound 27]	> 10	< 1	–
CN(Cc1ccccc1)C(=O)C1CCN(c2ccc3ccc(O)c(C=O)c3c2)C1 (centres unmarked) [Compound 134]	> 10	> 1	–
O=Cc1c(O)ccc2cc(N3CCN(Cc4ccccc4)CC3)ccc12 [Compound 95]	> 10	> 1	–
O=Cc1c(O)ccc2cc(N3CCC(NCc4ccccc4)CC3)ccc12 [Compound 97]	> 10	< 1	–
O=Cc1c(O)ccc2cc(N3CCC(C(=O)N4CCOCC4)C3)ccc12 (centres unmarked) [Compound 111, 2-Hydroxy-6-[3-(morpholine-4-carbonyl)-pyrrolidin-1-yl]-naphthalene-1-carbaldehyde]	> 10	< 1	–
COc1ccc(CNC(=O)c2cccc(-c3ccc4c(C=O)c(O)ccc4c3)n2)cc1 [Compound 17]	> 10	< 1	–
CN1CCN(C(=O)c2ccc(Cl)c(-c3ccc4c(C=O)c(O)ccc4c3)c2)CC1 [Compound 30]	–	< 1	–

The next lines start with results.

EC50 ([1]; Homo sapiens, MM1.S) [µM]	IC50 [2] [µM]	Structure (SMILES)	EC50 [1] [µM]
> 10	< 1	O=Cc1c(O)ccc2cc(-c3ccc(C(=O)N4CCOCC4)cc3Cl)ccc12 [Compound 29]	–
10	< 1	CNC(=O)c1ccc(-c2ccc3c(C=O)c(O)ccc3c2)s1 [Compound 11]	–
< 10	< 0.01	CN(C)C1CCN(c2ccc3c(C=O)c(O)ccc3c2)CC1 [Compound 85]	–
< 10	< 1	CN(C)C(=O)CCc1ccc2c(C=O)c(O)ccc2c1 [Compound 51]	–
< 10	< 0.1	O=Cc1c(O)ccc2cc(-c3ccc(C(=O)NCC4CCCNC4)s3)ccc12 (centres unmarked) [Compound 42]	–
< 10	< 0.1	CN(C)CCNC(=O)c1ccc(-c2ccc3c(C=O)c(O)ccc3c2)s1 [Compound 72]	–
< 10	< 1	NCCOCCOCCNC(=O)c1ccc(-c2ccc3c(C=O)c(O)ccc3c2)s1 [Compound 45]	–
10	< 1	O=Cc1c(O)ccc2cc(/C=C/C(=O)O)ccc12 [Compound 23]	–
< 10	< 0.1	O=Cc1c(O)ccc2cc(-c3cccc(C(=O)N4CCCC4)c3)ccc12 [Compound 1]	–
< 10	< 0.1	CN1CCN(C(=O)c2cnc(-c3ccc4c(C=O)c(O)ccc4c3)s2)CC1 [Compound 61]	–
< 10	< 1	O=Cc1c(O)ccc2cc(-c3ccc(C(=O)N4CCNCC4)s3)ccc12 [Compound 53]	–
< 10	< 0.1	Cc1nc(-c2ccc3c(C=O)c(O)ccc3c2)sc1C(=O)N1CCCC1 [Compound 140]	–
< 10	< 1	CN1CCN(C(=O)c2ccc(-c3ccc4c(C=O)c(O)ccc4c3)cn2)CC1 [Compound 50]	–
> 10	< 0.1	COCCNC(=O)c1cccc(-c2ccc3c(C=O)c(O)ccc3c2)n1 [Compound 6]	–
10	< 1	CN1CCN(c2nc(-c3ccc4c(C=O)c(O)ccc4c3)cs2)CC1 [Compound 120]	–
< 10	< 0.1	O=Cc1c(O)ccc2cc(-c3ccc(C(=O)NC4CCNCC4)cc3)ccc12 [Compound 48]	–
< 10	< 1	CC(=O)NC1CCN(c2ccc3c(C=O)c(O)ccc3c2)C1 (centres unmarked) [Compound 154]	–
< 10	< 0.1	O=Cc1c(O)ccc2cc(-c3ccc(C(=O)NC4CCNCC4)s3)ccc12 [Compound 46]	–
< 10	< 0.1	O=Cc1c(O)ccc2cc(Oc3ccc(C(=O)O)cc3)ccc12 [Compound 182]	–
< 10	< 0.1	COCCNC(=O)c1sc(-c2ccc3c(C=O)c(O)ccc3c2)nc1C [Compound 141]	–
< 10	< 0.1	O=Cc1c(O)ccc2cc(-c3cccc(C(=O)N4CCCC4)n3)ccc12 [Compound 14]	–
< 10	< 0.01	CN1CCN(C2CCN(c3ccc4c(C=O)c(O)ccc4c3)CC2)CC1 [Compound 86]	–
< 10	< 0.1	CN1CCCC(NC(=O)c2ccc(-c3ccc4c(C=O)c(O)ccc4c3)s2)C1 (centres unmarked) [Compound 78]	–
